# Source: patent publication US20150252047A1, “SUBSTITUTED INDAZOL-PYRROLOPYRIMIDINES USEFUL IN THE TREATMENT OF HYPERPROLIFERATIVE DISEASES” (BAYER PHARMA AKTIENGESELLSCHAFT, priority 2012, published 2015)
# Molecular target: T1, human full-length MKNK1 (Homo sapiens, UniProt Q9BUB5, T385D)
# T1 construct: GST (N); purchased Carna Biosciences 02-145; host or cells: insect cells (baculovirus expression system)
# Assay: MKNK1 kinase high ATP assay (TR-FRET)
# Assay type: biochemical
# Details: high ATP (2 mM final), 15 min preincubation with enzyme, 30 min reaction at 22° C.
# Method: MKNK1-inhibitory activity at high ATP of compounds of the present invention after their preincubation with MKNK1 was quantified employing the TR-FRET-based MKNK1 high ATP assay as described in the following paragraphs.
# A recombinant fusion protein of Glutathione-S-Transferase (GST, N-terminally) and human full-length MKNK1 (amino acids 1-424 and T344D of accession number BAA 19885.1), expressed in insect cells using baculovirus expression system and purified via glutathione sepharose affinity chromatography, was purchased from Carna Biosciences (product no 02-145) and used as enzyme. As substrate for the kinase reaction the biotinylated peptide biotin-Ahx-IKKRKLTRRKSLKG (C-terminus in amide form) was used, which can be purchased e.g. from the company Biosyntan (Berlin-Buch, Germany).
# For the assay 50 nL of a 100 fold concentrated solution of the test compound in DMSO was pipetted into a black low volume 384 well microtiter plate (Greiner Bio-One, Frickenhausen, Germany), 2 μL of a solution of MKNK1 in aqueous assay buffer [50 mM HEPES pH 7.5, 5 mM MgCl2, 1.0 mM dithiothreitol, 0.005% (v/v) Nonidet-P40 (Sigma)] was added and the mixture was incubated for 15 min at 22° C. to allow pre-binding of the test compounds to the enzyme before the start of the kinase reaction. Then the kinase reaction was started by the addition of 3 μL of a solution of adenosine-tri-phosphate (ATP, 3.3 mM=>final conc. in the 5 μL assay volume is 2 mM) and substrate (0.1 μM=>final conc. in the 5 μL assay volume is 0.06 μM) in assay buffer and the resulting mixture was incubated for a reaction time of 30 min at 22° C. The concentration of MKNK1 was adjusted depending of the activity of the enzyme lot and was chosen appropriate to have the assay in the linear range, typical concentrations were in the range of 0.003 μg/mL. The reaction was stopped by the addition of 5 μL of a solution of TR-FRET detection reagents (5 nM streptavidine-XL665 [Cisbio Bioassays, Codolet, France] and 1 nM anti-ribosomal protein S6 (pSer236)-antibody from Invitrogen [#44921G] and 1 nM LANCE EU-W1024 Labeled ProteinG [Perkin-Elmer, product no. AD0071]) in an aqueous EDTA-solution (100 mM EDTA, 0.1% (w/v) bovine serum albumin in 50 mM HEPES pH 7.5).
# The resulting mixture was incubated for 1 h at 22° C. to allow the formation of complex between the phosphorylated biotinylated peptide and the detection reagents. Subsequently the amount of phosphorylated substrate was evaluated by measurement of the resonance energy transfer from the Eu-chelate to the streptavidine-XL. Therefore, the fluorescence emissions at 620 nm and 665 nm after excitation at 350 nm were measured in a TR-FRET reader, e.g. a Rubystar (BMG Labtechnologies, Offenburg, Germany) or a Viewlux (Perkin-Elmer). The ratio of the emissions at 665 nm and at […] was taken as the measure for the amount of phosphorylated substrate. The data were normalised (enzyme reaction without inhibitor=0% inhibition, all other assay components but no enzyme=100% inhibition).
# T1 sequence (Q9BUB5 1-424 isoform Q9BUB5-2 T344D): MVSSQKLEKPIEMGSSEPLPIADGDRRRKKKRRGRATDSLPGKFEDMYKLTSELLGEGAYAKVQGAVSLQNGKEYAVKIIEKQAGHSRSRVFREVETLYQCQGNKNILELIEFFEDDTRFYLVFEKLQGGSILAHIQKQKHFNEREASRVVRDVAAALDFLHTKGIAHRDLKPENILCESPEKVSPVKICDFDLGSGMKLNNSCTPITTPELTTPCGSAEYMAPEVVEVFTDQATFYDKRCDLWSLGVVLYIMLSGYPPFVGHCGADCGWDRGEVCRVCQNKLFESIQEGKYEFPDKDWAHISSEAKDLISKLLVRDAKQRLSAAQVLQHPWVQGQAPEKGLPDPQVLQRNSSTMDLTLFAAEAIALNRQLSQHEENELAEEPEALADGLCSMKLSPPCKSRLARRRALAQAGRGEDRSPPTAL
row,SMILES,IC50
1,"Cc1cc2[nH]ncc2cc1Nc1ncnc2[nH]cc(C(=O)N3CCN(C)CC3)c12 [Example 13, {4-[(6-Methyl-1H-indazol-5-yl)amino]-7H-pyrrolo[2,3-d]pyrimidin-5-yl}(4-methylpiperazin-1-yl)methanone]",194 nM
2,"CC(C)Oc1cc2[nH]ncc2cc1Nc1ncnc2[nH]ccc12 [Example 24, N-[6-(Propan-2-yloxy)-1H-indazol-5-yl]-7H-pyrrolo[2,3-d]pyrimidin-4-amine]",26 nM
3,"COc1cc2[nH]ncc2cc1Nc1ncnc2[nH]c(C(=O)N3CCCCC3)c(Br)c12 [Example 60, {5-Bromo-4-[(6-methoxy-1H-indazol-5-yl)amino]-7H-pyrrolo[2,3-d]pyrimidin-6-yl}(piperidin-1-yl)methanone]",2 nM
4,"CC(C)Oc1cc2[nH]ncc2cc1Nc1ncnc2[nH]cc(C(=O)N3CCN(C)CC3)c12 [Example 29, (4-Methylpiperazin-1-yl)(4-{[6-(propan-2-yloxy)-1H-indazol-5-yl]amino}-7H-pyrrolo[2,3-d]pyrimidin-5-yl)methanone]",117 nM
5,"CCOC(=O)c1[nH]c2ncnc(Nc3cc4cn[nH]c4cc3OC(C)C)c2c1Br [Example 63, Ethyl 5-bromo-4-{[6-(propan-2-yloxy)-1H-indazol-5-yl]amino}-7H-pyrrolo[2,3-d]pyrimidine-6-carboxylate]",1 nM
6,"CCCc1[nH]c2ncnc(Nc3cc4cn[nH]c4cc3OC)c2c1CC [Example 46, 5-Ethyl-N-(6-methoxy-1H-indazol-5-yl)-6-propyl-7H-pyrrolo[2,3-d]pyrimidin-4-amine]",2 nM
7,"Cc1cc2[nH]ncc2cc1Nc1ncnc2[nH]cc(C(=O)N(C)C)c12 [Example 12, N,N-Dimethyl-4-[(6-methyl-1H-indazol-5-yl)amino]-7H-pyrrolo[2,3-d]pyrimidine-5-carboxamide]",211 nM
8,"COc1cc2[nH]ncc2cc1Nc1ncnc2[nH]c(C(=O)N(C)C)c(Br)c12 [Example 59, 5-Bromo-4-[(6-methoxy-1H-indazol-5-yl)amino]-N,N-dimethyl-7H-pyrrolo[2,3-d]pyrimidine-6-carboxamide]",1 nM
9,"CCc1[nH]c2ncnc(Nc3cc4cn[nH]c4cc3OC)c2c1C [Example 1, 6-Ethyl-N-(6-methoxy-1H-indazol-5-yl)-5-methyl-7H-pyrrolo[2,3-d]pyrimidin-4-amine]",3 nM
10,"O=C(O)c1c[nH]c2ncnc(Nc3cc4cn[nH]c4cc3F)c12 [Example 10, 4-[(6-Fluoro-1H-indazol-5-yl)amino]-7H-pyrrolo[2,3-d]pyrimidine-5-carboxylic acid]",14 nM
11,"CC(C)Oc1cc2[nH]ncc2cc1Nc1ncnc2[nH]c(Cl)cc12 [Example 40, 6-Chloro-N-[6-(propan-2-yloxy)-1H-indazol-5-yl]-7H-pyrrolo[2,3-d]pyrimidin-4-amine]",29 nM
12,"COc1cc2[nH]ncc2cc1Nc1ncnc2[nH]cc(C(=O)NC(C)C)c12 [Example 6, N-isopropyl-4-[(6-methoxy-1H-indazol-5-yl)amino]-7H-pyrrolo[2,3-d]pyrimidine-5-carboxamide]",16 nM
13,"COc1cc2[nH]ncc2cc1Nc1ncnc2[nH]cc(C#N)c12 [Example 35, 4-[(6-Methoxy-1H-indazol-5-yl)amino]-7H-pyrrolo[2,3-d]pyrimidine-5-carbonitrile]",1 nM
14,"CCc1c[nH]c2ncnc(Nc3cc4cn[nH]c4cc3OC)c12 [Example 57, 5-Ethyl-N-(6-methoxy-1H-indazol-5-yl)-7H-pyrrolo[2,3-d]pyrimidin-4-amine]",1 nM
15,"COc1cc2[nH]ncc2cc1Nc1ncnc2[nH]c(Br)cc12 [Example 20, 6-Bromo-N-(6-methoxy-1H-indazol-5-yl)-7H-pyrrolo[2,3-d]pyrimidin-4-amine]",13 nM
16,"COc1cc2[nH]ncc2cc1Nc1ncnc2[nH]c(C(=O)N3C[C@@H]4C[C@H]3CO4)c(Br)c12 [Example 64, {5-Bromo-4-[(6-methoxy-1H-indazol-5-yl)amino]-7H-pyrrolo[2,3-d]pyrimidin-6-yl}[(1S,4S)-2-oxa-5-azabicyclo[2.2.1]hept-5-yl]methanone]",1 nM

row,SMILES,IC50
1,"Cc1c[nH]c2ncnc(Nc3cc4cn[nH]c4cc3OC(C)C)c12 [Example 38, 5-Methyl-N-[6-(propan-2-yloxy)-1H-indazol-5-yl]-7H-pyrrolo[2,3-d]pyrimidin-4-amine]",1 nM
2,"COc1cc2[nH]ncc2cc1Nc1ncnc2[nH]c(C(=O)N(C)CCN(C)Cc3ccccc3)c(Br)c12 [Example 62, N-{2-[Benzyl(methyl)amino]ethyl}-5-bromo-4-[(6-methoxy-1H-indazol-5-yl)amino]-N-methyl-7H-pyrrolo[2,3-d]pyrimidine-6-carboxamide]",4 nM
3,"COc1cc2[nH]ncc2cc1Nc1ncnc2[nH]c(CC(C)C)c(C(C)C)c12 [Example 56, N-(6-Methoxy-1H-indazol-5-yl)-6-(2-methylpropyl)-5-(propan-2-yl)-7H-pyrrolo[2,3-d]pyrimidin-4-amine]",1 nM
4,"COc1cc2[nH]ncc2cc1Nc1ncnc2[nH]cc(C(=O)N3CCN(C)CC3)c12 [Example 5, {4-[(6-methoxy-1H-indazol-5-yl)amino]-7H-pyrrolo[2,3-d]pyrimidin-5-yl}(4-methylpiperazin-1-yl)methanone]",110 nM
5,"Fc1cc2[nH]ncc2cc1Nc1ncnc2[nH]cc(F)c12 [Example 9, 5-Fluoro-N-(6-fluoro-1H-indazol-5-yl)-7H-pyrrolo[2,3-d]pyrimidin-4-amine]",29 nM
6,"COc1cc2[nH]ncc2cc1Nc1ncnc2[nH]cc(C(=O)O)c12 [Example 4, 4-[(6-methoxy-1H-indazol-5-yl)amino]-7H-pyrrolo[2,3-d]pyrimidine-5-carboxylic acid]",72 nM
7,"COc1cc2[nH]ncc2cc1Nc1ncnc2[nH]c(C(=O)NCC(=O)N(C)C)c(Br)c12 [Example 68, 5-Bromo-N-[2-(dimethylamino)-2-oxoethyl]-4-[(6-methoxy-1H-indazol-5-yl)amino]-7H-pyrrolo[2,3-d]pyrimidine-6-carboxamide]",14 nM
8,"Fc1cc2[nH]ncc2cc1Nc1ncnc2[nH]cc(Br)c12 [Example 15, 5-Bromo-N-(6-fluoro-1H-indazol-5-yl)-7H-pyrrolo[2,3-d]pyrimidin-4-amine]",12 nM
9,"CC(C)Oc1cc2[nH]ncc2cc1Nc1ncnc2[nH]c(S(=O)(=O)c3ccccc3)cc12 [Example 52, 6-(Phenylsulfonyl)-N-[6-(propan-2-yloxy)-1H-indazol-5-yl]-7H-pyrrolo[2,3-d]pyrimidin-4-amine]",2 nM
10,"CC(C)Oc1cc2[nH]ncc2cc1Nc1ncnc2[nH]c(C#CCO)cc12 [Example 32, 3-(4-{[6-(Propan-2-yloxy)-1H-indazol-5-yl]amino}-7H-pyrrolo[2,3-d]pyrimidin-6-yl)prop-2-yn-1-ol]",14 nM
11,"COc1cc2[nH]ncc2cc1Nc1ncnc2[nH]cc(F)c12 [Example 3, 5-fluoro-N-(6-methoxy-1H-indazol-5-yl)-7H-pyrrolo[2,3-d]pyrimidin-4-amine]",5 nM
12,"CC(C)Oc1cc2[nH]ncc2cc1Nc1ncnc2[nH]cc(Br)c12 [Example 26, 5-Bromo-N-[6-(propan-2-yloxy)-1H-indazol-5-yl]-7H-pyrrolo[2,3-d]pyrimidin-4-amine]",2 nM
13,"COc1cc2[nH]ncc2cc1Nc1ncnc2[nH]c(C)cc12 [Example 37, N-(6-Methoxy-1H-indazol-5-yl)-6-methyl-7H-pyrrolo[2,3-d]pyrimidin-4-amine]",23 nM
14,"CC(C)NC(=O)c1c[nH]c2ncnc(Nc3cc4cn[nH]c4cc3F)c12 [Example 18, 4-[(6-Fluoro-1H-indazol-5-yl)amino]-N-(propan-2-yl)-7H-pyrrolo[2,3-d]pyrimidine-5-carboxamide]",9 nM
15,"COc1cc2[nH]ncc2cc1Nc1ncnc2[nH]c(C(=O)N3CCOCC3)c(Br)c12 [Example 58, {5-Bromo-4-[(6-methoxy-1H-indazol-5-yl)amino]-7H-pyrrolo[2,3-d]pyrimidin-6-yl}(morpholin-4-yl)methanone]",2 nM
